Patent publication USRE36397E, “Inhibitors of poly(ADP-ribose) synthetase and use thereof to treat NMDA neurotoxicity” (The John Hopkins University, priority 1998, dated 1999)
Entries after “also recorded” stand apart in the source; their conditions may differ. Where two headings read alike, the source gives them in different places.

What was measured:
[1] = biological target: PARS (poly(ADP-ribose) synthetase) (Rattus norvegicus, UniProt P27008); assay: PARS activity in rat brain nuclear extracts; format: biochemical; details: for activity at 20 µM: read-out: PARS activity, % of basal levels
Source text: Inhibitors of poly(ADP-ribose) synthetase are compounds which compete for the substrate binding site of poly(ADP-ribose) synthetase or other sites on the enzyme, and include both reversible and irreversible inhibitors. The present invention contemplates the use of any physiologically acceptable inhibitor which inhibits poly(ADP-ribose) synthetase activity. The effectiveness of a compound, and its relative potency as a poly(ADP-ribose) synthetase inhibitor, can be tested and routinely determined by measuring inhibition of poly(ADP-ribose) synthetase activity. Poly(ADP-ribose) synthetase activity can be assayed according to the method of Schranfstatter, et al., J. Clin. Inves. 77, 1312 (1986).
Whole brains from 1-day old rats were homogenized in 20% (w/v) buffer A [50 mM Tris-HCl (pH 7.4), 1 mM EDTA, 1 mM DTT, 50 mM NaCl, 0.25M sucrose, 0.2 mM phenylmethylsulfonyl fluoride, 1 μg/ml each of chymostatin, leupeptin, pepstatin and trypsin inhibitor]. The homogenate was centrifuged at 1000 g for 15 min. The pellet was washed with buffer A and centrifuged again. The washed pellet, termed nuclear fraction, was resuspended in buffer A. PARS activity was assayed according to I. U. Schranfstatter, et al., J. Clin. Inves. 77, 1312 (1986). Each 50 μl assay mixture contained 10 μg of the nuclear protein fraction and [adenylate-^32 P]

[2] = tested on: primary neuronal cultures from cortex; assay: NMDA neurotoxicity in cerebral cortical cultures (trypan blue, % cell death); format: cell-based, Sprague-Dawley rats; details: for protection against NMDA neurotoxicity (in words): 10 μM 1,5-dihydroxyisoquinoline, 1 mM novobiocin, Table 1A and summary statements
Method: To determine directly if PARS activation participates in NMDA neurotoxicity, we monitored neurotoxicity elicited by NMDA in cerebral cortical cultures in which NO synthase inhibitors provide marked protection (V. L. Dawson et al., Proc. Natl. Acad. Sci. U.S.A. 88, 6368 (1991); V. L. Dawson et al., J. Neurosci. 13, 2651 (1993)) (FIG. 2).
Table 1A, PARS inhibitors were applied 30 min before and during NMDA application. In Table 1B, PARS inhibitors were applied after NMDA administration at the indicated times for 20 to 24 hr. Data are the means ±SEM (n≥8). Each data point represents 4,000-12,000 neurons counted. *p≤0.001 Student's t-test.
(§1) Primary neuronal cultures from cortex were prepared from fetal Sprague-Dawley rats, gestation day 13-14. Mature neurons (grater than 21 days in culture) were used in all experiments.
(§2) Neurotoxicity was determined by exposing the neurons to the various test solutions as previously described (Dawson, supra). […], SNP or SNAP were applied to the cells for 5 min, then the cells were washed and replaced with MEM, 21 mM glucose overnight in the incubator. Twenty to 24 hr after exposure to test solutions, the neurons were exposed to 0.4% trypan blue in CSS to stain the residue of non-viable cells and to assess toxicity. Viable and non-viable cells were counted. At least two separate experiments utilizing four separate wells were performed for each data point shown. Significant overall values were obtained by using a one-way, between groups analysis of variance. Specific comparisons on all possible pair combinations were made with the Student's t-test for independent means.

[3] = tested on: pancreatic islet cells; details: Kallman et al. 1992; cited from earlier work
[4] = tested on: PARS; details: cited from earlier work; for relative potency as PARS inhibitor (in words): family of benzamide and its derivatives
[5] = tested on: brain NOS; assay: Nitrite formation in human kidney 293 cells stably transfected with brain NOS cDNA; format: cell-based; details: for nitrite formation: A23187 (10 μM), 2 hr, inhibitors 100 μM, n=3
Source text: (§3) To ascertain whether NO itself elicits neurotoxicity by activation of PARS, we administered the NO releasers SNP and S-nitroso-N-acetylpenicillamine (SNAP). […] In human kidney 293 cells stably transfected with the cDNA of brain.

[6] = tested on: primary neuronal cultures from cortex; assay: SNP and SNAP (NO releaser) neurotoxicity in cortical neuronal cultures; format: cell-based, Sprague-Dawley rats; details: for inhibition at 100 µM: Rattus norvegicus, Primary cortical neuron
Method: as §1, §2, §3

[7] = Direct interaction of benzamide with SNP/NO (HPLC recovery); format: physicochemical
[8] = Table 1A, 500 μM NMDA + 100 μM compound, 30 min before and during NMDA
[9] = Table 1A, 500 μM NMDA + 1 mM compound, 30 min before and during NMDA

Sequence of PARS (poly(ADP-ribose) synthetase) (P27008 whole entry): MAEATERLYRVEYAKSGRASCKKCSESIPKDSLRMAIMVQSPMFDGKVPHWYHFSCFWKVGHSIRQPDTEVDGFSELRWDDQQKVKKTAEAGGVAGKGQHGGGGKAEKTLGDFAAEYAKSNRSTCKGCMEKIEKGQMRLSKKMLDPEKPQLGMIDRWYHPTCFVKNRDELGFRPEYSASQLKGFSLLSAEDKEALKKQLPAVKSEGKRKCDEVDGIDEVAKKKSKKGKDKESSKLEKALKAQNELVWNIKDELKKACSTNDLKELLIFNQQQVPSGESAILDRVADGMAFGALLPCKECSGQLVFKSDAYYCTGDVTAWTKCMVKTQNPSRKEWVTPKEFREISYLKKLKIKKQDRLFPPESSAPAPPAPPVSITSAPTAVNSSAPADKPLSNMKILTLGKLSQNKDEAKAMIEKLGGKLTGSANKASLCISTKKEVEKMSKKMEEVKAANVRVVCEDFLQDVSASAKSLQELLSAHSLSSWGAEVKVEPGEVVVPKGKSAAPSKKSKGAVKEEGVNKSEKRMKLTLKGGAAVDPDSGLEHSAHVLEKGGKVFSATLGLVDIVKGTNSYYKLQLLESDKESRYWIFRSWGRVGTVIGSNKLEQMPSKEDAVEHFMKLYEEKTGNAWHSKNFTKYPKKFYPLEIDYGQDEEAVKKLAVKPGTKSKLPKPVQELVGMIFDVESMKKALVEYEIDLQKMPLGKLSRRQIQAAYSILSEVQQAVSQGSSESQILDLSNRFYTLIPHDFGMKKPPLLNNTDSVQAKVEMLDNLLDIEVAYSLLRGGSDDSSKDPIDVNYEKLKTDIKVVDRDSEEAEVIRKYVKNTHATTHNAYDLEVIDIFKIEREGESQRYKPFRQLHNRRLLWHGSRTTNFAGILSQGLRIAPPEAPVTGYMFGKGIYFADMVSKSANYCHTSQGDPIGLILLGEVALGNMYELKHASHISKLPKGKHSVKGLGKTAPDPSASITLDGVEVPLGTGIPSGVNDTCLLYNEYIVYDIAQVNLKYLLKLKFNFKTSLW

Q: For Oc1cccc2c(O)nccc12 [1,5-dihydroxyisoquinoline], which activity at 20 µM ([1]; inhibitor 20 μM, NO-treated DNA, FIG. 1A) is on record?
A: < 5%

Q: And the “protection against NMDA neurotoxicity (in words)” value (shortened to “protection … (in words)”) [2]?
A: neuroprotective

Q: What about the “protection … (in words)” value ([2]; listed as 1,5-dihydroxy-isoquinoline) of the same compound?
A: found to prevent neurotoxicity

Q: What about the “% Cell Death (± S.E.M.)” value ([2]; Table 1A, 500 μM NMDA + 10 μM compound, 30 min before and during NMDA) of the same compound?
A: 39.0 ± 4.5%

Q: Which results are given for NC(=O)c1cccc(N)c1 [3-aminobenzamide]?
A: protection of pancreatic islet cells from macrophage cytotoxicity [3]: protects pancreatic islet cells from macrophage cytotoxicity; relative potency as PARS inhibitor (in words) ([4]; relative to benzamide): about half as potent; protection against NMDA neurotoxicity (in words) [2]: found to have the ability to prevent neurotoxicity; also recorded: somewhat less protection; % Cell Death (± S.E.M.) [2, 8]: 45.9 ± 5.1%

Q: For Nc1ccc2c3c(cccc13)C(=O)NC2=O [4-amino-1,8-naphthalimide], which activity at 20 µM [1] is on record?
A: < 5%

Q: Which results are given for NC(=O)c1ccc(N)cc1 [4-aminobenzamide]?
A: fold weaker than benzamide as PARS inhibitor ([4]; relative to benzamide): 50-100 fold; % Cell Death (± S.E.M.) [2, 8]: 55.8 ± 7.6%

Q: For CNc1ccc2oc(C[C@H]3O[C@@]4(CC[C@H]3C)O[C@H]([C@H](C)C(=O)c3ccc[nH]3)[C@H](C)C[C@H]4C)nc2c1C(=O)O [A23187], which nitrite formation [5] is on record?
A: 17.1±2.1 μM nitrite

Q: With O=C(O)c1ccccc1 [Benzoic acid] as the compound, how does the “relative potency as PARS inhibitor (in words)” value ([4]; relative to benzamide) read?
A: inactive

Q: What about the “protection … (in words)” value [2] of the same compound?
A: found not to have any activity

Q: What about the “protection … (in words)” value ([2]; listed as benzoic acid) of the same compound?
A: inactive

Q: What about the “% Cell Death (± S.E.M.)” value [2, 9] of the same compound?
A: 58.9 ± 5.7%

Q: With CN[C@H](CC(=O)O)C(=O)O [NMDA, N-methyl- D-aspartate] as the compound, how does the “% Cell Death (± S.E.M.)” value ([2]; Table 1A, 500 μM NMDA alone) read?
A: 57.1 ± 4.7%

Q: What about the “% Cell Death (± S.E.M.)” value ([2]; Table 1B, 500 μM NMDA alone) of the same compound?
A: 74.7 ± 7.8%

Q: For [NH-]c1c[n+](N2CCOCC2)no1 [SIN-1, 3-morpholinosyndnonimine], which “effect on PARS activity by itself” value ([1]; SNP 1 mM, SIN-1 1 mM or untreated DNA, alone) is on record?
A: no effects on PARS

Q: With NC(=O)c1ccccc1 [benzamide] as the compound, how does the “reduction of SNAP mediated neurotoxicity” value ([6]; 100 μM, SNAP (300 μM), FIG. 2 legend) read?
A: reduces

Q: What about the “reduction of SNP mediated neurotoxicity” value ([6]; 100 μM, SNP (500 μM), FIG. 2 legend) of the same compound?
A: reduces

Q: And the inhibition at 100 µM ([6]; SNAP, read-out: reduction of SNAP neurotoxicity)?
A: 45 to 50%

Q: What about the inhibition at 100 µM ([6]; SNP, read-out: reduction of SNP neurotoxicity) of the same compound?
A: 45 to 50%

Q: And the IC50 ([4]; in vitro, Banasik et al. 1992, read-out: IC50 for inhibiting PARS in vitro)?
A: 22 µM

Q: And the “interaction with NO” value [7]?
A: did not interact; also recorded: did not interact with NO

Q: What about the “recovery of benzamide after incubation with SNP” value ([7]; benzamide 1 mM, SNP 1 mM, five days, 25° C., HPLC C18, 7200 min) of the same compound?
A: 100%

Q: And the “protection … (in words)” value [2]?
A: found to prevent neurotoxicity

Q: What about the “protection … (in words)” value ([2]; listed as Benzamide) of the same compound?
A: greatest degree of protection

Q: And the “protection against NMDA neurotoxicity” value ([2]; 50 μM)?
A: no significant protection was detected

Q: And the “reduction of NMDA mediated neurotoxicity” value ([2]; 100 μM, FIG. 2 legend)?
A: reduces

Q: What about the “greater protection than at 100 μM” value ([2]; 500 μM versus 100 μM) of the same compound?
A: about 30%

Q: What about the inhibition at 100 µM ([2]; Rattus norvegicus, Primary cortical neuron, read-out: protection against NMDA neurotoxicity) of the same compound?
A: 40 to 50%

Q: And the “% Cell Death (± S.E.M.)” value ([2]; Table 1A, 500 μM NMDA + 50 μM compound, 30 min before and during NMDA)?
A: 60.1 ± 12.1%

Q: What about the “% Cell Death (± S.E.M.)” value [2, 8] of the same compound?
A: 39.5 ± 5.0%

Q: What about the “% Cell Death (± S.E.M.)” value ([2]; Table 1A, 500 μM NMDA + 500 μM compound, 30 min before and during NMDA) of the same compound?
A: 21.9 ± 4.1%

Q: And the “% Cell Death (± S.E.M.)” value ([2]; Table 1B, 100 μM compound applied 5 min after 500 μM NMDA)?
A: 35.6 ± 8.7%

Q: And the “% Cell Death (± S.E.M.)” value ([2]; Table 1B, 100 μM compound applied 30 min after 500 μM NMDA)?
A: 40.4 ± 5.6%

Q: What about the “% Cell Death (± S.E.M.)” value ([2]; Table 1B, 100 μM compound applied 1 hour after 500 μM NMDA) of the same compound?
A: 43.4%

Q: With CO[C@@H]1[C@@H](OC(N)=O)[C@@H](O)[C@H](Oc2ccc3c(O)c(NC(=O)c4ccc(O)c(CC=C(C)C)c4)c(=O)oc3c2C)OC1(C)C [novobiocin] as the compound, how does the “protection … (in words)” value [2] read?
A: found not to have any activity in preventing neurotoxicity; also recorded: ineffective

Q: And the “% Cell Death (± S.E.M.)” value [2, 9]?
A: 62.4 ± 8.9%

Q: Which “effect on NOS / stimulated nitrite levels” value ([5]; 100 μM) does the source give for nitroarginine here?
A: abolished

Q: What about the nitrite formation [5] of the same compound?
A: 3.9±1.6 μM nitrite
